Measured values: patent publication US20220062299A1, “USE OF GLUCOCORTICOID STEROIDS IN PREVENTING AND TREATING CONDITIONS OF MUSCLE WASTING, AGING AND METABOLIC DISORDER” (NORTHWESTERN UNIVERSITY, priority 2018, published 2022)

Test system: mdx mice
Assay: Dosing of metabolic and endocrine biomarkers in serum and tissues, mdx mice, 4-week daily or weekly prednisone
Assay type: in vivo
Settings: 4-week treatment, mean ± s.e.m
Description: Animal handling and steroid regimens. Mice were housed in a pathogen-free dedicated vivarium in accordance with Institutional Animal Care and Use Committee (IACUC) guidelines. Euthanasia was performed through carbon dioxide inhalation followed by cervical dislocation and heart removal. All methods using living animals in this study were performed in ethical accordance with the American Veterinary Medical Association (AVMA) and under protocols fully approved by both the Institutional Animal Care and Use Committee (IACUC) at Northwestern University Feinberg School of Medicine (protocol number ISO00000761). Consistent with the ethical approvals, all efforts were made to minimize suffering. Mice were fed ad libitum with Mouse Breeder Sterilizable Diet (#7904; Harlan Teklad, Indianapolis, Ind.) and maintained on a 12-hour light/dark cycle. mdx mice from the DBA/2J background were obtained from the Jackson Laboratory (Bar Harbor, Me.; stock #013141) and interbred. Male mice were used for reported experiments. Age at start was approximately 6 months for short-term experiments, approximately 6 weeks for long-term experiments. Dysferlin-null (Dysf-null) mice from the 129T2/SvEmsJ background were previously characterized (Demonbreun et al., 2011; Demonbreun et al., 2014). Age at start was approximately 9 months for long-term experiments. For experiments with Dysf-null and wildtype mice, both females and males (approximately 1:1 ratio) were randomized in treatment groups. […] Dosing was based on weekly weight measurements (1 mg/kg body weight, (Sali et al., 2012)) in 100 μl total PBS volume per dose. […] On injection days, stock solutions stored at −20° C. were diluted into sterile Eppendorf tubes containing sterile phosphate buffered saline (PBS) (#14190; Thermo Fisher, Waltham, Mass.). Puromycin (cat #A1113803, Thermo Scientific, Waltham, Mass.) was administered i.p. as 0.040 μmol/body g, and tissues were snap-frozen 30 minutes after injection. Sterile BD Micro-Fine IV Insulin Syringes (#14-829-1A; Fisher Scientific, Waltham, Mass.) were used to inject the intraperitoneal cavity of non-sedated animals. All animal analyses both during treatment and at endpoint were conducted blinded to treatment groups.
Dosing of metabolic and endocrine biomarkers. Glycogen was quantitated using the Glycogen Assay Kit (#ab65620; Abcam, Cambridge, Mass.) from approximately 25 mg frozen-pulverized whole tissue, following manufacturer's instructions and internal standards for calculating μg/mg values. For measurement of whole-tissue ATP/NAD^+ levels, approximately 25 mg frozen-pulverized tissue was extracted in 10% perchloric acid and neutralized in 0.75 M K2CO3, as previously described (Ramsey et al., 2009). NAD+ and ATP were measured by high-pressure liquid chromatography (HPLC) with Shimadzu LC-20A pump (Shimadzu Scientific Instr Inc, Addison, Ill.) and UV-VIS detector, using a Supelco LC-18-T column (15 cm×[…]; #58970-U; Millipore-Sigma, St Louis, Mo.). […] ATP and NAD^+ eluted as sharp peaks at 3 and 14 minutes, respectively, and were normalized to tissue weight of frozen liver tissue for calculating pmol/mg values. Corticosterone was measured in mouse serum and cortisol was measured in human serum using dedicated ELISA kits (#ADI-900-097, Enzo Life Science, Farmingdale, N.Y.; #K7430-100, BioVision, Milpitas, Calif.) according to manufacturer's instructions and internal standards to calculate ng/ml values. Insulin levels were quantitated in mouse and human serum with species-specific ELISA kits (#10-1247-01 (mouse-specific); #10-1113-01 (human-specific); Mercodia, Uppsala, Sweden), following manufacturer's instructions and internal standards to calculate ng/ml values. Free fatty acids were quantitated using Enzychrom Free Fatty Acid Assay kit (#EFFA-100; BioAssay Systems, Hayward, Calif.), following kit's instructions and standards to calculate μM (serum) and nmol/mg (tissue) values. […]

C[C@]12C=CC(=O)C=C1CC[C@@H]1[C@@H]2C(=O)C[C@@]2(C)[C@H]1CC[C@]2(O)C(=O)CO [prednisone, Prednisone]
serum insulin (daily prednisone 1 mg/kg i.p.): 3.09 ± 0.14 ng/mL | serum BCAA (daily prednisone): 657 ± 24.2 µM | serum corticosterone (daily prednisone): 127 ± 5.34 ng/mL | serum free fatty acids (daily prednisone): 546 ± 13.5 µM | serum β-hydroxybutyrate (daily prednisone): 476 ± 4.81 µM | tissue BCAA, diaphragm (daily prednisone): 64 ± 3.09 nmol/mg | tissue BCAA, heart (daily prednisone): 2.38 ± 0.09 nmol/mg | tissue BCAA, omental fat (daily prednisone): 28.2 ± 0.99 nmol/mg | tissue BCAA, quadriceps (daily prednisone): 118 ± 2.74 nmol/mg | tissue free fatty acids, diaphragm (daily prednisone): 2.07 ± 0.09 nmol/mg | tissue free fatty acids, heart (daily prednisone): 0.86 ± 0.03 nmol/mg | tissue free fatty acids, omental fat (daily prednisone): 6.01 ± 0.3 nmol/mg | tissue free fatty acids, quadriceps (daily prednisone): 4.11 ± 0.11 nmol/mg | tissue β-hydroxybutyrate, diaphragm (daily prednisone): 28.4 ± 0.93 nmol/mg | tissue β-hydroxybutyrate, heart (daily prednisone): 24.6 ± 0.88 nmol/mg | tissue β-hydroxybutyrate, omental fat (daily prednisone): 58.8 ± 2.29 nmol/mg | tissue β-hydroxybutyrate, quadriceps (daily prednisone): 31.8 ± 0.48 nmol/mg | serum insulin (weekly prednisone 1 mg/kg i.p.): 1.73 ± 0.07 ng/mL | serum BCAA (weekly prednisone): 457 ± 14.1 µM | serum corticosterone (weekly prednisone): 194 ± 5.05 ng/mL | serum free fatty acids (weekly prednisone): 386 ± 17.3 µM | serum β-hydroxybutyrate (weekly prednisone): 425 ± 4.92 µM | tissue BCAA, diaphragm (weekly prednisone): 43.8 ± 0.93 nmol/mg | tissue BCAA, heart (weekly prednisone): 1.65 ± 0.07 nmol/mg | tissue BCAA, omental fat (weekly prednisone): 18.1 ± 0.94 nmol/mg | tissue BCAA, quadriceps (weekly prednisone): 89.6 ± 3.06 nmol/mg | tissue free fatty acids, diaphragm (weekly prednisone): 1.11 ± 0.07 nmol/mg | tissue free fatty acids, heart (weekly prednisone): 0.44 ± 0.02 nmol/mg | tissue free fatty acids, omental fat (weekly prednisone): 4.35 ± 0.07 nmol/mg | tissue free fatty acids, quadriceps (weekly prednisone): 1.25 ± 0.07 nmol/mg | tissue β-hydroxybutyrate, diaphragm (weekly prednisone): 17.1 ± 0.77 nmol/mg | tissue β-hydroxybutyrate, heart (weekly prednisone): 16.5 ± 0.56 nmol/mg | tissue β-hydroxybutyrate, omental fat (weekly prednisone): 19 ± 0.39 nmol/mg | tissue β-hydroxybutyrate, quadriceps (weekly prednisone): 16.4 ± 1.48 nmol/mg
